Assays:
Experiment in all cases: Adenosine Receptor Time-Resolved Fluorescence Resonance Energy Transfer (TRFRET) Binding Assay
Adenosine receptor A2a = Adenosine receptor A2a (Homo sapiens, UniProt P29274)
Procedure: (§1) All FRET binding experiments were conducted at room temperature in white 384-well plates, in assay binding buffer containing 1×LabMed (Cisbio, France), 100 μg/mL saponin, 1% DMSO and 0.02% pluronic acid. Binding of the fluorescently labelled Adenosine receptor antagonist XAC (CA200645, FRET acceptor) to terbium-labelled A1, A2a, A2b and A3 adenosine receptors (FRET donors) was detected by time-resolved FRET due to the close proximity of the donor and acceptor in a binding event. To investigate the ability of unlabelled test compounds to bind to Adenosine A1, A2a, A2b and A3 receptors, dose response curves were constructed that determined the ability of a range of concentrations to inhibit the binding of 30 nM CA200645 to the A2b receptor and 100 nM CA200645 to the A1, A2a, and A3 receptor. Serial dilution (1:3 dilutions) of test compounds in neat DMSO and transfer of a 400 nL sample of test compound into the assay plate was carried out using the Mosquito (TTP Labtech, UK). The compound samples were incubated for 2 hours at room temperature with a fixed concentration of CA200645 defined for each receptor (see above) and CHO cell membranes containing the human Adenosine A1 (0.5 μg/well), A2a (0.3 μg/well), A2b (1 μg/well) or A3 (1 μg/well) receptor in 40 μL of assay buffer. Total and non-specific binding of CA200645 was determined in the absence and presence of 10 μM XAC, respectively. Following 2 hours incubation, the level of CA200645 binding was detected on a Pherastar FSX (BMG Labtech, Germany) using standard TR-FRET settings. […] FRET ratios were obtained by multiplying the acceptor/donor ratio value by 10,000. Specific binding was determined by subtracting the non-specific binding FRET ratio from the total binding FRET ratio.

Adenosine receptor A1 = target: T1, Adenosine receptor A1 (Homo sapiens, UniProt P30542)
T1 sequence (P30542 whole entry): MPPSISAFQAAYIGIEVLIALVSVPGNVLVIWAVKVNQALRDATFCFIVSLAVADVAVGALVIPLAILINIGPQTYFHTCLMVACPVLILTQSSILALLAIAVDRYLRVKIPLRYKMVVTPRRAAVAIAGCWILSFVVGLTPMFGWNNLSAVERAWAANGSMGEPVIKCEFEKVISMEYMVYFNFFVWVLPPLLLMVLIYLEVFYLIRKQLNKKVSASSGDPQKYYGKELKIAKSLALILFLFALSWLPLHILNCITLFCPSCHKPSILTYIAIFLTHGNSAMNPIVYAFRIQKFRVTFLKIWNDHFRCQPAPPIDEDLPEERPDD
Procedure: as §1

Adenosine receptor A3 = target: T2, Adenosine receptor A3 (Homo sapiens, UniProt P0DMS8)
T2 sequence (P0DMS8 whole entry): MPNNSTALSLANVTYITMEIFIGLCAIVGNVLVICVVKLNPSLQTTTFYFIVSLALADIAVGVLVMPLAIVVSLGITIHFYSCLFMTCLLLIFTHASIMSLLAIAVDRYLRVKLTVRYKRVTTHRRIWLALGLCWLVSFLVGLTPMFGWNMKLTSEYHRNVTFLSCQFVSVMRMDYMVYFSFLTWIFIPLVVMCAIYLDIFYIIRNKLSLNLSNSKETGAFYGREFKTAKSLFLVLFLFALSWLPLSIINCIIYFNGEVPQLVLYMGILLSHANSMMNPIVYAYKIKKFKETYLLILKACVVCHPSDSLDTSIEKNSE
Procedure: as §1

Adenosine receptor A2b = target: T3, Adenosine receptor A2b (Homo sapiens, UniProt P29275)
T3 sequence (P29275 whole entry): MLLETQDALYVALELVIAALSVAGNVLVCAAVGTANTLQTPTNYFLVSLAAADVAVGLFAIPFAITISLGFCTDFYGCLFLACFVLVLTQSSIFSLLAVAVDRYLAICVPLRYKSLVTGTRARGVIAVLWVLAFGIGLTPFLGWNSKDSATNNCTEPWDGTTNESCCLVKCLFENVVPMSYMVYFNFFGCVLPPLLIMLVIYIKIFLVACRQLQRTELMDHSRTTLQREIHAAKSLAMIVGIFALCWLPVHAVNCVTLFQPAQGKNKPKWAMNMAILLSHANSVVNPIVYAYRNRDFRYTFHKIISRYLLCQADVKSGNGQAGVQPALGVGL
Procedure: as §1

Sequence of Adenosine receptor A2a (P29274 whole entry): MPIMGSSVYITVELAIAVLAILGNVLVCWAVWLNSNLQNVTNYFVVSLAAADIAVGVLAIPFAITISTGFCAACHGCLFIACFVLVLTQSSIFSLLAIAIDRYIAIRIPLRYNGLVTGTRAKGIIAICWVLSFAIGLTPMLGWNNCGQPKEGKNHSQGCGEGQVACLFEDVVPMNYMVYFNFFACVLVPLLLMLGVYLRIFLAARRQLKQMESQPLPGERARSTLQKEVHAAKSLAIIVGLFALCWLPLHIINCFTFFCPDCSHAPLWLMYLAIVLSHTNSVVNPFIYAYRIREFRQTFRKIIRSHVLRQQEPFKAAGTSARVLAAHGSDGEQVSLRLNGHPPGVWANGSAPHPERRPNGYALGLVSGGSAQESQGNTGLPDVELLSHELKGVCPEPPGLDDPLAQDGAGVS

| SMILES | Ki (Adenosine receptor A2a) | Ki (Adenosine receptor A1) | Ki (Adenosine receptor A3) | Ki (Adenosine receptor A2b) |
| --- | --- | --- | --- | --- |
| Cc1cc(-c2sc(NC(=O)N3CCOC(C(N)=O)C3)nc2-c2cccc(C#N)c2)cc(C)n1 (configuration not stated) [US20230293517, Example 4.14] | 2 nM | 67 nM | 200 nM | 2.4 nM |
| Cc1cc(-c2sc(NC(=O)N3CCC4(CC3)CNC(=O)N4C)nc2-c2cccc(C#N)c2)cc(C)n1 [US20230293517, Example 6.51] | – | 120 nM | 318 nM | 1.2 nM |
| Cc1cc(-c2sc(NC(=O)N3CC4(CCOCC4)C3)nc2-c2cccc(C#N)c2)cc(C)n1 [US20230293517, Example 6.54] | 0.38 nM | 53 nM | 268 nM | 1.9 nM |
| Cc1cc(-c2sc(NC(=O)N3CC4(CNC(=O)C4)C3)nc2-c2cccc(C#N)c2)cc(C)n1 [US20230293517, Example 6.55] | 0.6 nM | 86 nM | 273 nM | 2.4 nM |
| Cc1cc(-c2sc(NC(=O)N3CCC4(CC3)CNC(=O)O4)nc2-c2cccc(C#N)c2)cc(C)n1 [US20230293517, Example 6.56] | 0.59 nM | 75 nM | 368 nM | 1.2 nM |
| Cc1cc(-c2sc(NC(=O)N3CCC4(CCCC(=O)N4)CC3)nc2-c2cccc(C#N)c2)cc(C)n1 [US20230293517, Example 6.58] | 2.27 nM | 559 nM | 848 nM | 7.8 nM |
| Cc1cc(-c2sc(NC(=O)N3CCC4(CC3)CNC4=O)nc2-c2cccc(C#N)c2)c(F)c(C)n1 [US20230293517, Example 6.69] | 0.94 nM | 124 nM | 156 nM | 1.4 nM |
| Cc1cc(-c2sc(NC(=O)N3CCC[C@H]3CO)nc2-c2cccc(C#N)c2)cc(C)n1 [US20230293517, Example 6.71] | 3.45 nM | 110 nM | 62 nM | 4.2 nM |
| Cc1cc(-c2sc(NC(=O)N3CC[C@H]3CO)nc2-c2cccc(C#N)c2)cc(C)n1 [US20230293517, Example 6.73] | 2.51 nM | 92 nM | 165 nM | 3.7 nM |
| Cc1cc(-c2sc(NC(=O)N3CC4(COC4)C3)nc2-c2cccc(C#N)c2C)cc(C)n1 [US20230293517, Example 6.79] | 1.5 nM | 177 nM | 537 nM | 6 nM |

These reach a lower Ki (Adenosine receptor A1). Values come first.

| Ki (Adenosine receptor A2a) | Ki (Adenosine receptor A1) | Ki (Adenosine receptor A3) | Ki (Adenosine receptor A2b) | SMILES |
| --- | --- | --- | --- | --- |
| 12.9 nM | 39 nM | 321 nM | 21.7 nM | Cc1cc(-c2sc(NC(=O)N3CCOC[C@@H]3CO)nc2-c2cccc(C#N)c2)cc(C)n1 [US20230293517, Example 6.76] |
| 0.43 nM | 37 nM | 1210 nM | 0.6 nM | Cc1cc(-c2sc(NC(=O)N3CCC(C)(C#N)CC3)nc2-c2cccc(C#N)c2)c(F)c(C)n1 [US20230293517, Example 6.66] |
| 0.88 nM | 32 nM | 212 nM | 1.3 nM | Cc1cc(-c2sc(NC(=O)N3CC4(CNC(=O)N4)C3)nc2-c2cccc(C#N)c2)cc(C)n1 [US20230293517, Example 6.57] |
| 0.36 nM | 30 nM | 217 nM | 0.6 nM | Cc1cc(-c2sc(NC(=O)N3CC(C)(C#N)C3)nc2-c2cccc(C#N)c2)c(F)c(C)n1 [US20230293517, Example 6.68] |
| 2.06 nM | 22 nM | 201 nM | 1 nM | Cc1cc(-c2sc(NC(=O)N3CC(C)(O)C3)nc2-c2cccc(C#N)c2)c(F)c(C)n1 [US20230293517, Example 6.67] |
| 1.66 nM | 20 nM | 162 nM | 5.3 nM | Cc1cc(-c2sc(NC(=O)N3CC[C@@H]3CO)nc2-c2cccc(C#N)c2)cc(C)n1 [US20230293517, Example 6.91] |
| 1.12 nM | 3 nM | 94 nM | 1.2 nM | Cc1cc(-c2sc(NC(=O)N3CC[C@@H]3C)nc2-c2cccc(C#N)c2)cc(C)n1 [US20230293517, Example 6.72] |

— BindingDB's records for patent US20230293517 (Adorx Therapeutics, 2023)
